Laboratory results as given in US20140106387A1, “METHOD FOR CONTROLLING NAD(P)/NAD(P)H RATIO BY OXIDOREDUCTASE” (MD BIOALPHA CO., LTD., priority 2006, published 2014).

What was measured:
HepG2 cells = assay: mitochondrial membrane potential (TMRE fluorescence) in HepG2 cells; assay type: cell-based, human; settings: NQO1-proficient HepG2 cells
Experimental: For determination of the inner mitochondrial membrane potential (ΔΨm), 20 nM of TMRE (tetramethylrhodamine ethyl ester) as a fluorescent indicator was continuously applied to be loaded on cells. In order to monitor mitochondrial Ca^2+, cells on glass coverslips were loaded with 10 μM Rhod-2 AM via cold loading/warm incubation. In order to monitor cytosolic Ca^2+, cells were co-loaded with 10 μM Fluo-4 AM at 37′C for 30 min. The cells were washed twice with a KB solution, and mounted in a perfusion chamber. Fluorescent imaging was taken using a confocal laser scanning microscope (LSM-510 META, Carl Zeiss) at a magnification of ×200 and ×400, in conjunction with appropriate laser lines and a filter set. Image analysis was carried out using LSM-510 META software (Zeiss). Images for TMRE (red fluorescence), Rhod-2 (red fluorescence) and Fluo-4 (green fluorescence) were obtained using an inverted Zeiss 510META laser-scanning confocal microscope equipped with ×63 numerical aperture, 1.4 oil-immersion planapochromat lens. Green fluorescence and red fluorescence were illuminated with light of 488 nm and 543 nm. Incident light was passed through a 545 nm dichroic mirror and observed via a 500 to 530 nm band-pass (green) filter and a 560 nm long-pass (red) barrier filter.
However, such effects were not observed in HEK293 cells. […]

cardiomyocytes = assay: mitochondrial oxygen consumption in cardiomyocytes; assay type: cell-based
Text: FIG. 22 is a graph showing monitoring results of mitochondrial oxygen consumption using a Clark-type oxygen electrode;

AMPK, ACC = assay: AMPK kinase / ACC activity in HepG2 cells; assay type: cell-based, human
[1] = tested on: mRNAs in liver, adipose and muscle tissues; assay: real-time quantitative PCR / microarray of gene expression in tissues of DIO mice; assay type: in vivo, mouse
Experimental: Animals were continuously fed high-fat diet pellets for 3 to 4 weeks, thereby establishing DIO mice. Mice were raised in a breeding room with a 12 h/12 h light/dark D) cycle. Animals were divided into three groups, i.e., a group with administration of physiological saline (n=3), a group with administration of a vehicle (n=5) and a group with administration of 50 mg/kg of a candidate compound (n=7). Samples were orally administered to animals every day. On Days 7, 28 and 56, each tissue was removed, frozen in liquid nitrogen, and stored at […] for short and long periods of time.
On Days 7, 28 and 56, liver, adipose and muscle tissues were isolated from two groups of diet-induced DIO mice and total RNAs were extracted using Trizol. cDNAs were synthesized using 1 μg of total RNAs, and polymerase used for PCR was prepared using M-MLV polymerase according to a method instructed by the manufacturer. Real-time quantitative PCR was carried out using the prepared cDNAs.
A cDNA microarray analysis was carried out using an affymetrix mouse genome 430A 2.0 array chip. Using trizol, about 13 μg of total RNA was extracted in a concentration of more than 1 μg/1 μl from liver, adipose and muscle tissues of DIO mice on Days 7, 28 and 56, followed by a microarray analysis. Functional classification was made using NetAffx which is available from the Affymetrix website.
Adipose, liver or muscle tissues were pooled from male mice treated with a vehicle or a candidate compound for 4 weeks and the pooled tissues were subjected to microarray analysis. Total RNA was prepared from the tissues homogenized with a Trizol reagent (Invitrogen, Carlsbad, Calif.). Probes for the microarray analysis were prepared from 10 μg of the total RNA, and hybridized to Mouse 430A GeneChips (Affymetrix, Santa Clara, Calif.). The hybridized array was scanned, and raw data was extracted using Microarray Analysis Suite 5.0 (Affymetrix). For PCR quantitation, 1 μg of total RNA was reversely transcribed into cDNA using Superscript II and oligo(dT) primers. The constructed cDNA was amplified with the LightCycler FastStart DNA Master SYBR Green I kit and LightCycler, according to the manufacturer's instruction (Roche Diagnostics, Indianapolis, Ind.). Expression data were normalized to β-actin expression.
In order to investigate anti-obesity effects of an NQO1 activator, the NQO1 activator was administered daily to DIO mice at a dose of 50 mg/kg via an oral route, and an attempt was made to confirm levels of mRNAs of acetyl CoA carboxylase (ACC) 1, ACC2, fatty acid synthase (FAS), lipoprotein lipase (LPL), and stearoyl-CoA desaturase 1 (SCD1), which participate in lipid metabolism in the hepatic and gonadal adipose tissues, by real-time quantitative PCR. These enzymes are very important for lipid metabolism; it is known that ACC catalyzes formation of malonyl CoA from acetyl CoA, FAS catalyzes formation of palmitate from malonyl CoA, and SCD1 catalyzes formation of monounsaturated fat, thus playing a critical role in formation of triacylglycerol, a major energy store. Therefore, these enzymes are closely correlated with obesity, diabetes, and lipid metabolism-related diseases. […] Therefore, from the results of such increased or decreased expression of genes for the above-mentioned enzymes, it can be inferred that NQO1 will be feasible as a therapeutic target for the treatment of metabolic diseases.
In order to investigate effects of βL on the expression of genes involved in glucose and fat metabolism in liver, skeletal muscle and white adipose tissue (WAT), experiments were caned out using gene expression microarray analysis and mouse A42 Affymetrix GeneChip.

[2] = mean body temperature after cold exposure; assay type: in vivo, mouse; settings: ambient temperature of 4 for 12 hours
[3] = AMP/ATP, NAD+/NADH and NADP+/NADPH ratios in liver after intravenous administration; assay type: in vivo, mouse; settings: Lean mice
[4] = DIO mice, 50 mg/kg daily oral, liver and gonadal adipose tissues
[5] = gonadal adipose tissues, Days 7, 28 and 56, 50 mg/kg daily oral

With CC1(C)CCC2=C(O1)c1ccccc1C(=O)C2=O [βL, 2,2-Dimethyl-3,4-dihydro-2H-benzo[h]chromene-5,6-dione] the “decrease of TMRE fluorescence” value (HepG2 cells) was “about 20%”, the mitochondrial oxygen consumption (cardiomyocytes) was “increased” and the ACC activation (AMPK, ACC) was “decreases ACC activation”. The “activity of AMPK” value (AMPK, ACC; 10 μM, 30 min) was “increased”, the “LPL mRNA level increase compared to control” value ([1]; DIO mice, 50 mg/kg daily oral) was “approximately 2 fold” and the “increase in mRNA levels of PPAR gamma” value ([1]; DIO mice, 50 mg/kg daily oral) was “two-fold”. The “mRNA of PPAR alpha” value ([1]; DIO mice, 50 mg/kg daily oral) was “not changed”, the “mRNAs of AOX, AMPK alpha 1, AMPK alpha 2 and carnitine palmitoyltransferase 1” value ([1]; DIO mice, 50 mg/kg daily oral) was “increased levels” and the “expression levels of mRNAs of ACC1 and ACC2, FAS, LPL, and SCD1” value ([1]; DIO mice, 50 mg/kg daily oral, hepatic and gonadal adipose tissues) was “remarkably decreased”. For the same molecule, the “HK2 mRNA level” value [1, 4] was “decreased”, the “mRNA levels of UCP1 & 2” value [1, 4] was “significant increases” and the “mRNAs of GLUT2 and GLUT4” value [1, 4] was “significant increases”. The “mRNAs of PGC1α, NRF1, mtTFA, COX4 and COX7” value [1, 4] was “increased levels of mRNAs for all enzymes”, the “expression of LPL, ATGL, PPARα, SIRT1, Glut2 and Glut4” value ([1]; adipose tissues, vs vehicle-treated mice) was “higher” and the “transcripts of SIRT1, SIRT3 and SIRT6” value [1, 5] was “significantly increased”. For the same molecule, the “transcripts of SIRT2, SIRT5 and SIRT7” value [1, 5] was “did not exhibit any noticeable difference”, the “expression of PGC-1α and NRF-1” value ([1]; liver and muscle, βL-treated vs vehicle-treated mice) was “significantly induced” and the “expression of COX4, COX7, AOX, UCP2 and UCP3” value ([1]; muscle) was “strongly upregulated”. The “expression of GLUT 2 and GLUT 4” value ([1]; muscle) was “induced”, the “expression of Sirt1 and Sirt3” value ([1]; muscle and WAT) was “induced” and the “mean body temperature after cold exposure” value [2] was “more resistant to the cold”. For the same molecule, the “changes in the AMP/ATP ratio and NAD+/NADP ratio compared with control” value [3] was “less changes”.
